# Reference: EP0004810B1 (priority 1978, dated 1979)
# Tests used:
# [1] = tested on: comédons; design: species or system souris femelles atrichis «rhinocéros»; settings: in vivo
# [2] = tested on: PI[…]; type: cell-based, Pityrosporum ovale
SMILES,D (grand diamètre) [1],Rapport d/D [1],d (diamètre de l'orifice) [1],C.M.I. [2] [µg/mL]
"O=C(OOC(=O)c1ccccc1)c1ccccc1 [Peroxyde de benzoyle, peroxyde de benzoyle, reference compound]","27,0±1,8 unités arbitraires","0,54","14,7±2,1 unités arbitraires",–
"O=C(OOC(=O)c1cccs1)c1cccs1 [Peroxyde de thénoyle, peroxyde de thénoyle]","23,5±1,6 unités arbitraires","0,90","21,1±1,7 unités arbitraires",250
